Measurements taken from patent publication US20060276844A1, “Ingestible device for nitric oxide production in tissue” (priority 2005, published 2006).

Key:
rat jejunum [1] = assay: NO-signal-enhanced drug permeation in rat jejunum in vitro, with NOS inhibitor L-NAME (FIGS. 2-3); type: in vitro ADME; conditions: 1 mM L-NAME plus NO signal (5 mA, 1 ms, 18 Hz), rat jejunum segments
Source text: Reference is made to FIGS. 2 and 3, which are graphs showing in vitro experimental results measured in accordance with an embodiment of the present invention. These experiments assessed the effect of the application of an electrical signal configured to enhance NO-associated drug permeation, which is inhibited by non-specific NOS inhibitor NG-Nitro-L-Arginine methyl ester (L-NAME) in rat jejunum in vitro. The NO-releasing electrical signal (hereinbelow, the “NO signal”) was applied with the following parameters: an amplitude of 5 mA, a pulse width of 1 ms, and a frequency of 18 Hz. In the experiment shown in FIG. 2, 1 mg/ml octreotide was applied to 11 segments of rat jejunum. The NO signal alone was applied to six of the segments, 1 mM L-NAME alone was applied to two of the segments, and the NO signal and 1 mM L-NAME were applied to three of the segments. In the experiment shown in FIG. 3, 1 mg/ml leuprolide was applied to 14 segments of rat jejunum. The NO signal alone was applied to three of the segments, 1 mM L-NAME alone was applied to two of the segments, the NO signal and 1 mM L-NAME were applied to three of the segments, and no treatment was applied to the remaining six segments.

rat jejunum [2] = assay: Octreotide permeation in rat jejunum in vitro: electrical stimulation versus NO donor (FIG. 4); type: in vitro ADME
Description: FIG. 4 is a graph showing in vitro experimental results measured in accordance with an embodiment of the present invention. In this experiment, the permeation-enhancing effect of electrical stimulation in rat jejunum in vitro was compared with the effect of an NO donor, molsidomine (SIN-10) (exogenous nitric oxide). The NO signal alone was applied to six segments of rat jejunum, 1 mM SIN-10 alone was applied to four segments, the NO signal and 1 mM SIN-10 were applied to three segments, and no treatment was applied to six segments.

## COC(=O)[C@@H](N)CCCNC(=N)N[N+](=O)[O-] [L-NAME, NG-Nitro-L-Arginine methyl ester]
Rat jejunum [1]; FIG. 2, 1 mg/ml octreotide
  effect on NO-signal-enhanced drug permeation (octreotide): nearly prevented
Rat jejunum [1]; FIG. 3, 1 mg/ml leuprolide
  effect on NO-signal-enhanced drug permeation (leuprolide): nearly prevented

## CCOC(=O)[N-]c1cn(N2CCOCC2)n[o+]1 [SIN-10, molsidomine]
Rat jejunum [2]; 1 mM SIN-10 alone
  rate of octreotide transepithelial transport compared with electrically-induced absorption: similar
Rat jejunum [2]; NO signal plus 1 mM SIN-10
  effect of combination with electrical stimulation on enhanced permeation of octreotide, versus electrical stimulation alone: did not augment
